In patent publication US20260335398A1, “METHODS FOR TREATING PANCREATIC CANCER WITH A COMBINATION OF DES-METHYL PATEAMINE A AND A CLASS I HDAC INHIBITOR” (Baylor University, priority 2023, published 2026):

Legend:
[1] = test system: c-MYC; test: Immunoblot of c-MYC protein levels in PDAC cell lines treated with DMPatA and DMDAPatA (FIG. 6B); assay type: cell-based; conditions: Capan-1, PANC-1, AsPC-1, MIA PaCa-2; 24 and 48 hours; DMPatA 10 and 20 nM, DMDAPatA 40 nM
Procedure: FIG. 6B compares immunoblots of c-MYC protein levels from whole cell extracts of various PDAC cell lines (Capan-1, PANC-t, AsPC-1, MIA PaCa-2) treated with DMPatA (10 nM and 20 nM) and DMDPatA ([…]) (40 nM). Treatment was for 24 and 48 hours.
Western blotting was carried out as previously described (Luchenko V L, Litman T, Chakraborty A R, et al. 65. Membranes were probed with primary antibodies: Phospho-Histone H2A.X (Ser139) (1:1000, Millipore Sigma #05-636), GAPDH (1:10000, Abcam #ab8245), c-Myc (1:1000, Abcam #ab32072), β-Actin (1:1000, Cell Signaling Technology (CST), #8457), Phospho-RPA32/RPA2 (Ser33) (1:1000, Cell Signaling Technology #10148), Phospho-Chk1 (Ser345) (1:1000, CST #2341), and secondary antibodies IRDye® 680RD Goat anti-Mouse and IRDye® 800CW Goat anti-Rabbit (both from LI-COR Biosciences). Signal quantification was performed using the Odyssey CLx imaging system (LI-COR Biosciences), capturing various exposures within the linear range with ImageStudio software V3.1 (LI-COR Biosciences).

[2] = Body weight of xenograft mice (FIG. 2B); assay type: in vivo, athymic nude mice; conditions: IP; romidepsin 0.75 mg/kg, DMPatA 0.075 mg/kg
Excerpt: FIGS. 2A and 2B illustrate the results of a MIA PaCa-2 xenograft model of PDAC in male athymic nude mice. FIG. 2A compares tumor growth (mm^3) in mice treated with the indicated concentrations of combination, romidepsin and DMPatA using IP route and vehicles described in the materials and methods section below. FIG. 2B compares body weight (g) of mice treated with the combination and single agents following treatment. FIGS. 2C and 2D compare quantification of H3K9ac and c-MYC antibodies. Frozen sections from MIA PaCa-2 xenograft tumor tissues were subjected to immunohistochemical analysis using antibodies against H3K9ac, and c-MYC. Fluorescence images were captured using fluorescent microscopy and the fluorescent signal from H3K9ac and c-MYC antibodies were quantified. To quantify fluorescence intensity at least 500 cells per condition were measured for each antibody at 40× magnification. The median of the signal intensity is shown. Statistical significance was determined by one-way ANOVA using Tukey multiple comparisons test, ****p value<0.0001.
Animal studies were performed according to Institutional Animal Care and Use Committee (IACUC) protocol number AC-AABD2601. Following the establishment of initial dose levels for individual drugs, efficacy of the combination and single agents in a MIA PaCa-2 xenograft model was assessed at a tolerable dose and schedule. […]

[3] = test system: MIA PaCa-2 and KLM cells; test: RNA-seq gene expression analysis (FIG. 9A); assay type: cell-based; conditions: total 18 h (6 h romidepsin 15 nM + 12 h with/without DMPatA 2 nM); |log2FC|≥1, adjusted p<0.05
Procedure: Plots show a significant increase in the overall gene expression in the cells treated with the combination. Cells treated for a total of 18 h (i.e., 6-hour romidepsin followed by 12-hour incubation with 2 nM DMPatA (combo) or without (Romi alone)).
To gain further insight into the effects of the combination treatment gene expression was profiled in MIA PaCa-2 and KLM cells treated with vehicle, the single agents, or the combination for a total of 18 h (i.e., 6-hour romidepsin treatment followed by 12-hour washout with 2 nM DMPatA or without), probing whether alterations observed following combination treatment could be explained by changes in gene expression.
Total RNA was extracted using RNeasy mini kit (Qiagen) from cells collected after 18 hours (6 hours romidepsin (15 nM)+12 hours washout with or without DMPatA (2 nM)) incubation with or without drugs. RNA quantitation and quality were assessed by the Agilent Bioanalyzer 2100 at the Molecular Pathology Shared Resource of the Herbert Irving Comprehensive Cancer Center at Columbia University (mBank). RNA library preparation and sequencing was performed at Columbia University's Sulzberger Genome Center. Briefly, poly-A pull-down was used to enrich mRNAs from total RNA samples, followed by library construction using Illumina TruSeq chemistry. Libraries were then sequenced using Illumina NovaSeq 6000. For the DESeq2 (v 1.40.2) analysis the data were imported with tximport in DESeq2 and a dds object was generated. Variance stabilizing transformation was used on the object and the output was used for the heatmap and PCA plots. Abundance of transcripts was estimated by pseudoalignment using kallisto, and downstream analysis was performed using R (v4.3.1) and the indicated packages. […] Differentially expressed genes were determined using linear regression method (limma v3.56.2), and genes with |log 2FC|≥1 and adjusted p-value <0.05 were plotted accordingly on volcano plots and heatmap (ggplot2 v3.5.0 and ComplexHeatmap v2.16.0). […]

[4] = test system: PDAC cell lines (Capan-1, PANC-1, AsPC-1, MIA PaCa-2); test: Cytotoxicity/cell viability (CellTiter-Glo) of DMPatA on PDAC cell lines, 48 h (FIG. 6A); assay type: cell-based; conditions: four PDAC cell lines (Capan-1, PANC-1, AsPC-1, MIA PaCa-2)
Procedure: FIG. 6A compares cytotoxicity graphs of the effect (viability) of DMPatA on various PDAC cell lines (Capan-1, PANC-1, AsPC-1, MIA PaCa-2) following 48 hours of treatment.
(§1) Previous studies have reported that inhibitors of translation initiation prevent cell proliferation and reduce levels of critical oncoproteins such as MYC and cyclinD1. The effects of DMPatA, a novel inhibitor of eIF4A helicase, was evaluated on four PDAC cell lines. All cells were sensitive to treatment with IC50s ranging from 2.8 to 10 nM (FIG. 6A). […] The efficacy of another eIF4Ai, zotatifin (eFT226), was evaluated on MIA PaCa-2 and KLM cells.
(§2) Cell viability was determined using CellTiter-Glo® reagent (Promega, #G7570) following the manufacturer's instructions. Cells were seeded at […] in white 96-well plates and grown overnight. They were then treated and incubated at 37 °C with 5% CO2. After incubation, assay reagent was added, and luminescent signals were quantified using a microplate reader (PHERAstar® FS, BMG LABTECH, Ortenberg, Germany). Caspase-Glo 3/7 assay (Promega, #G8091) was also employed following the manufacturer's instructions to measure apoptosis.

[5] = test system: MIA PaCa-2 and KLM cells; test: Cell proliferation with zotatifin on MIA PaCa-2 and KLM cells; assay type: cell-based
Procedure: as §1, §2

CC(/C=C/C(C)=C/[C@@H]1Cc2nc(cs2)CCCCC(=O)O[C@@H](C)C/C(C)=C/C=C\C(=O)O1)=C\CN(C)C [DMDAPatA, des-methyl des-amino pateamine A]
c-MYC protein levels [1]: reduced c-MYC levels in all cell lines

CC(/C=C/C(C)=C/[C@@H]1Cc2nc(cs2)CC[C@@H](N)CC(=O)O[C@@H](C)C/C(C)=C/C=C\C(=O)O1)=C\CN(C)C [DMPatA, des-methyl pateamine A]
body weight vs vehicle [2]: neither the single agent nor the combination treatments had a significant impact on weight
number of differentially expressed genes (DEGs) [3]: 1443 DEGs
IC50 [4]: 2.8 to 10 nM

COc1cc2c(c(OC)n1)[C@]1(O)[C@H](O)[C@H](CN(C)C)[C@@H](c3ccccc3)[C@]1(c1ccc(C#N)cc1)O2 [zotatifin]
potency in suppressing proliferation, DMPatA vs zotatifin [5]: reduced potency, compared to DMPatA
